Several values for one entry are separate records, joined by “and”; a condition that tells them apart may be missing. Identical values can stand only once.
Experiments:
OR1A1 = target: T1, OR1A1 (Homo sapiens, UniProt Q9P1Q5); test: Dual-Glo luciferase reporter gene assay, OR1A1 in Hana3A cells; assay type: cell-based; design: The open reading frames of ORs were amplified using Phusion polymerase; Rho-tag (first 20 amino acids of human rhodopsin) (N); expressed in transfected cells; host or cells: Hana3A cells (derived from HEK293T), pCI vector; co-transfected with human RTP1S, M3 receptor, CRE-Luc and SV40-RL; settings: for activation of OR1A1 in dose-responses: Figure 4A; for Bottom / normilazed value = (L-400/R-400) / Top / EC50 / LogEC50: OR1A1; for Bottom / Top: log(agonist) vs. response (three parameters), normalized (L-400/R-400); for normilazed value = (L-400/R-400) / LogEC50: log[molecule]; for normilazed value = (L-400/R-400): three replicates; for LogEC50: M
T1 sequence (Q9P1Q5 1-309): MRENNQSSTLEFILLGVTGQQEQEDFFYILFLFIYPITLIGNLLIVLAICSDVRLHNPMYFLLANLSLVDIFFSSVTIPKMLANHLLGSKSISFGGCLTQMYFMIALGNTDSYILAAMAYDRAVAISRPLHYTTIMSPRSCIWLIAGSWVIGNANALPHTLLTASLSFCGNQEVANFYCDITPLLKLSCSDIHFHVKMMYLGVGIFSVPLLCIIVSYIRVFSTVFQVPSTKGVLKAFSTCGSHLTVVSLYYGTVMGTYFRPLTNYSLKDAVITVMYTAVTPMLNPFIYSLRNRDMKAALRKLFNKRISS
Experimental: (§1) Hana3A cells were maintained in minimal essential medium containing 10% FBS (vol/vol) with penicillin-streptomycin and amphotericin B (1/200 each vol/vol) at 37 °C and 5% CO2. Hana3A cells are derived from HEK293T [57] and are optimized for OR studies as shown in several studies, compared to earlier OR expression in Sf9 insect cells in Gat et al., and in Xenopus oocytes, COS-7, PC12h and CHO-K1 cells in Katada et al..
(§2) The Dual-Glo luciferase assay system (Promega, Madison, WI, USA) was used to evaluate the functionality of wild-type OR1A1 and OR2W1 in an in vitro system. The open reading frames of ORs were amplified using Phusion polymerase (Thermo Fisher Scientific, Waltham, MA, USA). Amplified fragments were cloned into pCI expression vector (Promega, Madison, WI, USA) containing the sequence encoding the first 20 amino acids of human rhodopsin (Rho-tag) at N-terminal. Hana3A cells have been cultured and plated the day before transfection with 6 mL at 1/10 of a 100% confluence 100 mm plate into 96-well plates coated with poly D-lysine. After overnight incubation, the required genes were transfected using, for each plate, 5 ng SV40-RL, 10 ng CRE-Luc, 5 ng human RTP1S [72], 2.5 ng M3 receptor [73] and 5 ng of receptor (OR1A1, OR2W1 or empty vector Rho-pCI) plasmid. After around 18 h of transfection, cells were stimulated during 3.5 h by 25 µL of odorant diluted in CD293 + 1% glutamine + 30 µM CuCl2. Odorants were obtained from Sigma Aldrich (St. Louis, MO, USA) and diluted at 1 M concentration in DMSO as stock solutions. […] The luminescence of Firefly (Luc) and Renilla (Rluc) luciferase, were then sequentially monitored by injecting the corresponding substrate following the supplier’s protocol. The activity in each well was normalized as (Luc-400)/(Rluc-400). The response of the receptor was also normalized to its basal activity as (NLX/NL0)-1 where NL0 is the normalized luminescence value at 0 µM of odorant and NLX the value at X µM. […] Raw results were first analyzed with Excel (Microsoft Corporation, Albuquerque, NM, USA) and dose response curves, max efficacy and EC50 have been determined with GraphPrism 6 software (GraphPad Software, La Jolla, CA, USA). Areas under the curves (AUC) were calculated in Excel by summing all the OR responses at different concentrations for each odorant.

OR2W1 = target: T2, OR2W1 (Homo sapiens, UniProt Q9Y3N9); test: Dual-Glo luciferase reporter gene assay, OR2W1 in Hana3A cells; assay type: cell-based; design: The open reading frames of ORs were amplified using Phusion polymerase; Rho-tag (first 20 amino acids of human rhodopsin) (N); expressed in transfected cells; host or cells: Hana3A cells (derived from HEK293T), pCI vector; co-transfected with human RTP1S, M3 receptor, CRE-Luc and SV40-RL; settings: for normilazed value = (L-400/R-400): log[molecule], three replicates, listed as 1,4 bis(4-vinylphenoxy)butane
T2 sequence (Q9Y3N9 1-320): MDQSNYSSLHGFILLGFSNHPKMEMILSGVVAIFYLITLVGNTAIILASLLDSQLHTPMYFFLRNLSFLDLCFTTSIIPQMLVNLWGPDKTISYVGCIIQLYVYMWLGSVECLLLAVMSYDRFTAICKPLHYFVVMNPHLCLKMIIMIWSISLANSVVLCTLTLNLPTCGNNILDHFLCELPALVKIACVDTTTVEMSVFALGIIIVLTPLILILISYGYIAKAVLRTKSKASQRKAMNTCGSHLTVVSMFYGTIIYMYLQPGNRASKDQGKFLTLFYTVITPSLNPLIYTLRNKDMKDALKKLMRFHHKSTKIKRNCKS
Experimental: as §1, §2

[1] = OR2W1, log(agonist) vs. response (three parameters), 95% CI (profile likelihood), normalized (L-400/R-400)
[2] = three-parameter fit, 95% CI (profile likelihood)

Structure (SMILES)	activation of OR1A1 in dose-responses (OR1A1)	Bottom (OR1A1; 95% CI (profile likelihood))	normilazed value = (L-400/R-400) (OR1A1; M = -3.5)	normilazed value = (L-400/R-400) (OR1A1; M = -3.75)	normilazed value = (L-400/R-400) (OR1A1; M = -4)	normilazed value = (L-400/R-400) (OR1A1; M = -4.25)	normilazed value = (L-400/R-400) (OR1A1; M = -4.5)	normilazed value = (L-400/R-400) (OR1A1; M = -4.75)	normilazed value = (L-400/R-400) (OR1A1; M = -5)	normilazed value = (L-400/R-400) (OR1A1; M = -5.25)	normilazed value = (L-400/R-400) (OR1A1; M = -5.5)	normilazed value = (L-400/R-400) (OR1A1; M = -5.75)	normilazed value = (L-400/R-400) (OR1A1; M = -6)	Top (OR1A1; 95% CI (profile likelihood))	EC50 (OR1A1; [2]) [µM]	LogEC50 (OR1A1; [2])	EC50 (OR1A1; 95% CI) [µM]	further results
c1cnc2c(c1)ccc1cccnc12 [1,10-Phenanthroline]	did not activate OR1A1	1.108 to 2.224	-5 and -0.03226 and 0.3636	0.5532 and 0.08791 and 0.1429	-3.909 and 0.2121 and 0.03846	1.0814 and 2.077 and 1.521	1.468 and 1.358 and 1.008	0.8876 and 1.015 and 1.576	1.356 and 1.5085 and 1.392	1.691 and 1.671 and 2.1214	1.201 and 1.5718 and 1.847	1.3268 and 1.745 and 1.5675	1.452 and 1.389 and 1.692	–	–	–	–	–
C=Cc1ccc(OCCCCOc2ccc(C=C)cc2)cc1 [1-Ethenyl-4-[4-(4-ethenylphenoxy)butoxy]benzene]	–	–	–	–	–	–	–	–	–	–	–	–	–	–	–	–	–	activation of OR2W1 in dose-responses (OR2W1; Figure 4B): non-agonist; Bottom (OR2W1; [1]): 13.33 to 18.34; Top (OR2W1; [1]): 19.48 to 21.36; normilazed value = (L-400/R-400) (OR2W1; OR2W1, M = -3.5): 14.9951 and 16.6432 and 18.6473; normilazed value = (L-400/R-400) (OR2W1; OR2W1, M = -3.75): 18.9044 and 23.5612 and 19.9145; normilazed value = (L-400/R-400) (OR2W1; OR2W1, M = -4): 20.1703 and 23.9778 and 22.651; normilazed value = (L-400/R-400) (OR2W1; OR2W1, M = -4.25): 19.282 and 20.5728 and 18.4952; normilazed value = (L-400/R-400) (OR2W1; OR2W1, M = -4.5): 18.9465 and 18.6061 and 21.68; normilazed value = (L-400/R-400) (OR2W1; OR2W1, M = -4.75): 18.1682 and 21.4587 and 25.3103; normilazed value = (L-400/R-400) (OR2W1; OR2W1, M = -5): 19.2619 and 21.2657 and 21.338; normilazed value = (L-400/R-400) (OR2W1; OR2W1, M = -5.25): 22.445 and 21 and 22.2921; normilazed value = (L-400/R-400) (OR2W1; OR2W1, M = -5.5): 19.9195 and 18.3482 and 19.8887; normilazed value = (L-400/R-400) (OR2W1; OR2W1, M = -5.75): 21.6432 and 19.6062 and 21.4331; normilazed value = (L-400/R-400) (OR2W1; OR2W1, M = -6): 16.9263 and 20.1438 and 17.6109
C=C(C)[C@H]1CC=C(C)CC1 [Dipentene]	weak activator	0.9206 to 2.078	15.0728 and 8.79 and 8.6943	10.4582 and 8.9424 and 9.316	8.181 and 7.514 and 8.062	7.841 and 5.647 and 6.278	5.494 and 4.914 and 4.401	3.7707 and 3.641 and 3.368	2.7632 and 2.301 and 2.9635	2.721 and 2.59 and 2.766	2.326 and 2.0399 and 1.767	1.87 and 1.732 and 1.479	1.6 and 1.531 and 1.2039	11.22 to 15.68	44.9 to 133	-4.348 to -3.874	–	–
CCOC(=O)Cc1cccc(Br)c1 [Ethyl 2-(3-bromophenyl)acetate]	able to activate OR1A1	0.4401 to 2.007	9.12 and 11.0639 and 10.393	11.9065 and 11.6251 and 11.7476	13.3839 and 12.372 and 11.9409	8.912 and 11.2901 and 12.3912	7.943 and 8.382 and 10.0109	5.611 and 6.9779 and 6.123	5.045 and 5.149 and 4.806	3.622 and 3.689 and 4.46	2.564 and 3.159 and 3.452	2.1766 and 2.696 and 2.931	1.855 and 2.338 and 2.234	11.66 to 13.55	11.5 to 24.4	-4.940 to -4.613	11.5 to 24.4	–
COC(=O)Cc1ccccc1C [Methyl 2-(2-methylphenyl)acetate]	able to activate OR1A1	0.03511 to 1.535	10.0524 and 12.0337 and 11.3132	12.5278 and 11.5014 and 12.1842	10.2366 and 11.6676 and 13.2311	7.699 and 8.952 and 12.582	7.699 and 8.491 and 8.724	5.333 and 7.756 and 8.263	4.586 and 4.422 and 5.725	3.435 and 3.266 and 4.088	2.183 and 2.432 and 2.624	1.457 and 1.905 and 2.354	1.1663 and 1.179 and 1.777	11.79 to 13.66	12.2 to 25	-4.914 to -4.603	12.2 to 25	–
